What was measured:
Test in all cases: relative viability (nuclei count vs DMSO), 5 days (fraction); higher = more cells survive
SGI-1776 + Linsitinib = compound: CN1CCC(CNc2ccc3ncc(-c4cccc(OC(F)(F)F)c4)n3n2)CC1 [SGI-1776] + C[C@]1(O)C[C@@H](c2nc(-c3ccc4ccc(-c5ccccc5)nc4c3)c3c(N)nccn32)C1 [Linsitinib] (partner 1 µM)
In short: (§1)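 Lung cancer cell lines were pin-tool dosed in 1536-well plates on the day after seeding, with either a lone drug or a fixed anchor-drug dose plus five library-drug doses (not always all listed) in √10 steps. Nuclei were counted on 4× images after 5 days. Relative viability is the ratio of treated-well to vehicle-well nuclei counts, with each value a median of duplicate plates.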

Entinostat + OSI-027 = compound: Nc1ccccc1NC(=O)c1ccc(CNC(=O)OCc2cccnc2)cc1 [Entinostat] + COc1cccc2cc(-c3nc([C@H]4CC[C@H](C(=O)O)CC4)n4ncnc(N)c34)[nH]c12 [OSI-027] (partner 0.5 µM)
In short: as §1

[1] = compound: C1COCCN1C2=NC(=NC3=C2OC4=C3C=CC=N4)C5=CC(=CC=C5)NC(=O)C6=CN=C(C=C6)N + CC(C)C[C@H](NC(=O)[C@H](Cc1ccccc1)NC(=O)c1cnccn1)B(O)O [Bortezomib] (partner 0.002 µM)
In short: as §1

[2] = compound: C1COCCN1C2=NC(=NC3=C2OC4=C3C=CC=N4)C5=CC(=CC=C5)NC(=O)C6=CN=C(C=C6)N + CC(=O)c1c(C)c2cnc(Nc3ccc(N4CCNCC4)cn3)nc2n(C2CCCC2)c1=O [Palbociclib] (partner 0.5 µM)
In short: as §1

Row | Cell Line | relative viability (SGI-1776 + Linsitinib; first compound 0.08 µM) | relative viability (SGI-1776 + Linsitinib; first compound 0.8 µM) | relative viability (SGI-1776 + Linsitinib; first compound 2.53 µM) | relative viability (SGI-1776 + Linsitinib; first compound 8 µM) | relative viability (Entinostat + OSI-027; first compound 0.02 µM) | relative viability (Entinostat + OSI-027; first compound 0.06325 µM) | relative viability (Entinostat + OSI-027; first compound 0.2 µM) | relative viability (Entinostat + OSI-027; first compound 0.6325 µM) | relative viability (Entinostat + OSI-027; first compound 2 µM) | relative viability ([1]; first compound 0.02 µM) | relative viability ([1]; first compound 0.06325 µM) | relative viability ([1]; first compound 0.2 µM) | relative viability ([1]; first compound 0.6325 µM) | relative viability ([1]; first compound 2 µM) | relative viability ([2]; first compound 0.02 µM) | relative viability ([2]; first compound 0.06325 µM) | relative viability ([2]; first compound 0.2 µM) | relative viability ([2]; first compound 0.6325 µM) | relative viability ([2]; first compound 2 µM)
1 | NCI-H1651 | 1.01 | 0.925 | 0.938 | 0.566 | 0.747 | 0.653 | 0.71 | 0.608 | 0.542 | 1.03 | 0.998 | 0.946 | 0.921 | 0.743 | 0.51 | 0.509 | 0.499 | 0.495 | 0.395
2 | NCI-H1666 | 0.856 | 0.83 | 0.772 | 0.493 | 0.906 | 0.897 | 0.859 | 0.618 | 0.606 | 0.781 | 0.902 | 0.735 | 0.588 | 0.486 | 0.627 | 0.681 | 0.672 | 0.622 | 0.571
3 | NCI-H1734 | 0.919 | 0.895 | 0.935 | 0.749 | 0.635 | 0.772 | 0.59 | 0.5 | 0.488 | 1.15 | 1.02 | 0.835 | 0.801 | 0.462 | 0.413 | 0.355 | 0.342 | 0.33 | 0.271
4 | NCI-H1755 | 0.988 | 0.969 | 0.996 | 0.896 | 0.693 | 0.776 | 0.684 | 0.566 | 0.309 | 0.947 | 1.08 | 0.904 | 0.918 | 0.613 | 0.418 | 0.481 | 0.442 | 0.426 | 0.365
5 | NCI-H1792 | 0.479 | 0.543 | 0.503 | 0.647 | 0.752 | 0.753 | 0.609 | 0.569 | 0.43 | 1.2 | 0.905 | 0.994 | 0.86 | 0.374 | 0.661 | 0.74 | 0.605 | 0.463 | 0.384
6 | NCI-H1915 | 1.11 | 1.12 | 1.13 | 1.1 | 0.594 | 0.605 | 0.58 | 0.283 | 0.222 | 1.07 | 1.08 | 1.03 | 1.02 | 0.423 | 0.516 | 0.573 | 0.512 | 0.613 | 0.48
7 | NCI-H1975 | 0.946 | 0.906 | 0.909 | 0.803 | 0.532 | 0.526 | 0.467 | 0.264 | 0.209 | 0.352 | 0.419 | 0.397 | 0.359 | 0.299 | 0.589 | 0.777 | 0.48 | 0.455 | 0.38
8 | NCI-H1993 | 0.755 | 0.76 | 0.78 | 0.645 | 0.484 | 0.586 | 0.53 | 0.552 | 0.653 | 1.2 | 1.13 | 0.967 | 0.891 | 0.893 | 0.683 | 0.72 | 0.543 | 0.632 | 0.467
9 | NCI-H2009 | 1.22 | 1.16 | 1.3 | 1.09 | 0.59 | 0.691 | 0.628 | 0.636 | 0.451 | 0.977 | 1.11 | 0.969 | 0.977 | 0.727 | 0.195 | 0.224 | 0.144 | 0.223 | 0.202
10 | NCI-H2023 | 0.727 | 0.77 | 0.666 | 0.444 | 0.287 | 0.29 | 0.264 | 0.12 | 0.0886 | 0.995 | 1.13 | 0.914 | 0.75 | 0.48 | 0.378 | 0.384 | 0.316 | 0.256 | 0.172
11 | NCI-H2085 | 0.994 | 0.957 | 0.902 | 0.757 | 0.737 | 0.625 | 0.676 | 0.334 | 0.293 | 1.02 | 1.1 | 1.05 | 0.943 | 0.769 | 0.405 | 0.502 | 0.455 | 0.445 | 0.438
12 | NCI-H2087 | 0.913 | 0.863 | 1.09 | 1.12 | 0.666 | 0.509 | 0.376 | 0.27 | 0.213 | 0.802 | 0.889 | 0.854 | 0.862 | 0.361 | 0.211 | 0.223 | 0.235 | 0.219 | 0.194
13 | NCI-H2126 | 0.731 | 0.731 | 0.684 | 0.695 | 0.725 | 0.699 | 0.712 | 0.402 | 0.308 | 1.07 | 1.18 | 1.1 | 1.03 | 0.879 | 0.297 | 0.367 | 0.345 | 0.388 | 0.36
14 | NCI-H2228 | 0.881 | 0.541 | 0.557 | 0.276 | 0.695 | 0.595 | 0.416 | 0.266 | 0.208 | 1.25 | 1.1 | 0.975 | 0.84 | 0.488 | 0.934 | 0.817 | 0.407 | 0.64 | 0.621
15 | NCI-H2347 | 0.995 | 0.992 | 0.966 | 0.865 | 0.292 | 0.284 | 0.175 | 0.217 | 0.153 | 1.2 | 0.922 | 1.01 | 0.784 | 0.73 | 0.443 | 0.413 | 0.4 | 0.48 | 0.441
16 | NCI-H2405 | 0.899 | 0.873 | 0.854 | 0.588 | 0.574 | 0.652 | 0.582 | 0.567 | 0.414 | 0.995 | 1.02 | 0.973 | 0.947 | 0.902 | 0.498 | 0.566 | 0.499 | 0.48 | 0.359
17 | NCI-H3122 | 1.04 | 0.983 | 1.16 | 1.08 | 1.01 | 1.08 | 0.998 | 0.823 | 0.191 | 0.985 | 1.01 | 1.03 | 1.05 | 0.931 | 0.182 | 0.187 | 0.164 | 0.186 | 0.16

— the supplement of paper PMC10307832
